# Molecular target: T1, CKα1 (Homo sapiens, UniProt P35790)
# T1 construct: an N-terminally His-tagged truncated form of CKα1 (Δ75–457) was cloned into a pET-28a vector; His tag (N); made in house; host or cells: E. coli BL21 (DE3) Star
# Assay: Choline kinase assay ([methyl-14C]choline into PCho, purified enzyme)
# Assay type: biochemical
# Settings: concentration required to inhibit CKα1 enzyme by 50%
# Experimental: The protein was produced and purified as previously described. Briefly, an N-terminally His-tagged truncated form of CKα1 (Δ75–457) was cloned into a pET-28a vector and expressed at 37 °C in E. coli BL21 (DE3) Star cells using 1 mM isopropyl β-D-1-thiogalactopyranoside (IPTG). After centrifugation, the cellular pellet was resuspended in 50 mM Tris-HCl pH 7.5, 500 mM NaCl, 0.2 mM phenylmethylsulphonyl fluoride (PMSF), DNase, and 0.5 mM β-mercaptoethanol, sonicated and subjected to a two-step purification procedure to isolate the target enzyme. […] Protein elution was completed using buffer A + 400 mM imidazole. A second size-exclusion chromatography step was then carried out to achieve complete purity. To this end, we used a HiPrep 26/60 Sephacryl 100 HR column (GE Healthcare, Little Chalfont, Buckinghamshire, UK) and a 20 mM Tris/HCl pH 7.5, 150 mM NaCl running buffer.
# To study the effect of the compounds on CKα, an in vitro enzymatic assay was performed using the purified enzyme as previously reported in [19, 28, 29]. Briefly, the incorporation of ^14C from [methyl-^14C]choline into PCho in either the absence (control) or presence of different inhibitors at varying concentrations was used to determine the CK activity. The reaction mixture included 20 ng of purified CKα1, 10 mM ATP, 10 mM MgCl2, 100 mM Tris-HCl pH 8.5, and increasing concentrations of compounds. The mixture was preincubated at 37 °C for 5 min. Then, [methyl-^14C]choline chloride (1 mM, 4500 dpm/nmol) was added and the reaction was left to proceed for 10 min at 37 °C. The assay was stopped by immersing the reaction tubes in boiling water. PCho was separated by Thin Layer Chromatography using methanol/0.6% NaCl/28% NH4OH in water (50:50:5, v/v/v) as solvent. The radioactivity associated into PCho was determined in a Beckman 6000-TA (Madrid, Spain) liquid scintillation counter. The 50% inhibitory concentrations (IC50 values) were determined from the % enzyme activity at different concentrations of synthetic inhibitors relative to the control by using a sigmoidal dose–response curve (ED50plus v1.0 software).
# T1 sequence (P35790 75-457): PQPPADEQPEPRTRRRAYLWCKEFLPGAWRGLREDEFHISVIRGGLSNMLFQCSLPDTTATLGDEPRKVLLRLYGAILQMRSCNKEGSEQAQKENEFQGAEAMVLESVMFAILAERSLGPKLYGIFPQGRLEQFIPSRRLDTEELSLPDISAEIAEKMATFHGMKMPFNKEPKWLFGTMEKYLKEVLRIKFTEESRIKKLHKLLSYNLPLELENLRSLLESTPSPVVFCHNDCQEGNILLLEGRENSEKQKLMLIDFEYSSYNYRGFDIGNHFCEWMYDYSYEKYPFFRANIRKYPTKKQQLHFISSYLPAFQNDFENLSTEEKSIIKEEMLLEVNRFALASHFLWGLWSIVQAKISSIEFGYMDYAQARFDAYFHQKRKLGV
row,SMILES,IC50 [nM]
1,[Br-].[Br-].c1cc2c(s1)c(N1CCCC1)cc[n+]2Cc1ccc(CCCCc2ccc(C[n+]3ccc(N4CCCC4)c4sccc43)cc2)cc1 [Ff-1],1540 ± 170
2,[Br-].[Br-].c1cc2c(N3CCCC3)nc[n+](Cc3ccc(CCCCc4ccc(C[n+]5cnc(N6CCCC6)c6ccsc65)cc4)cc3)c2s1 [Ff-3],≥ 5000
3,[Br-].[Br-].c1cc2c(N3CCCC3)nc[n+](Cc3ccc(OCCOc4ccc(C[n+]5cnc(N6CCCC6)c6ccsc65)cc4)cc3)c2s1 [Ff-4],≥ 10000

# Same assay, conditions: purified CKα1, inhibitor 10 µM, end-point assay
row,SMILES,% Inhibition at 10 µM [%]
1,[Br-].[Br-].c1cc2c(s1)c(N1CCCC1)cc[n+]2Cc1ccc(CCCCc2ccc(C[n+]3ccc(N4CCCC4)c4sccc43)cc2)cc1 [Ff-1],82.15
2,[Br-].[Br-].c1cc2c(N3CCCC3)nc[n+](Cc3ccc(CCCCc4ccc(C[n+]5cnc(N6CCCC6)c6ccsc65)cc4)cc3)c2s1 [Ff-3],74.17
3,[Br-].[Br-].c1cc2c(N3CCCC3)nc[n+](Cc3ccc(OCCOc4ccc(C[n+]5cnc(N6CCCC6)c6ccsc65)cc4)cc3)c2s1 [Ff-4],55.23

# Same assay, conditions: purified CKα1, inhibitor 30 µM, end-point assay
row,SMILES,% Inhibition at 30 µM [%]
1,[Br-].[Br-].c1cc2c(s1)c(N1CCCC1)cc[n+]2Cc1ccc(CCCCc2ccc(C[n+]3ccc(N4CCCC4)c4sccc43)cc2)cc1 [Ff-1],90.83
2,[Br-].[Br-].c1cc2c(N3CCCC3)nc[n+](Cc3ccc(CCCCc4ccc(C[n+]5cnc(N6CCCC6)c6ccsc65)cc4)cc3)c2s1 [Ff-3],80.09
3,[Br-].[Br-].c1cc2c(N3CCCC3)nc[n+](Cc3ccc(OCCOc4ccc(C[n+]5cnc(N6CCCC6)c6ccsc65)cc4)cc3)c2s1 [Ff-4],77.28

# Tested on: A549
# Assay: Antiproliferative activity, resazurin assay, 72 h
# Assay type: cell-based, human
# Settings: not given
# Experimental: (§1) Human cervix carcinoma (HeLa), Non-small lung adenocarcinoma (A549), Colon adenocarcinoma (HT29), and human triple negative breast cancer (MDA-MB-231) were cultured in Dulbecco’s modified Eagle’s media (DMEM). B-acute lymphoblastic leukemia (RS4;11 and SEM), T-acute lymphoblastic leukemia (Jurkat), and human promyelocytic cells (HL-60), were cultured in RPMI-1640 medium. Both media were purchased from Gibco, Life Technologies (Milan, Italy) and supplemented with 10% Fetal Bovine Serum (FBS, Invitrogen, Milan, Italy,). Every six months, each cell line was checked for the presence of mycoplasma by RT-PCR.
# (§2) Stock solutions (10 mM) of the different compounds were made in DMSO. Cancer cells were seeded in tissue-treated, flat bottom, 384-well plates (Corning) according to their optimal density, (A549 1000 cells/wells; MDA-MB-231, HeLa and HT-29 2000 cells/well and finally Jurkat, HL-60 SEM and RS4;11 20.000 cells/well) in 27 µL of complete medium per well.
# (§3) The day after cell seeding and immediately before cell treatment, 10 mM stock solutions of the compounds were pre-diluted to a […] concentration in 250 µL of Hank’s in a 96-well plate (Corning). Subsequent 1:5 dilutions were carried out using a microlab STAR 96-CORE liquid handling system (Hamilton), a robotized liquid handling tool that was employed for all steps, from cell seeding to drug dilution and cell treatment to ensure high reproducibility while reducing time for large screening execution. This pre-dilution step was necessary to avoid DMSO-related cytotoxicity and compound precipitation in the cell culture medium. In every case, DMSO concentration never exceeded 0.1%.
# (§4) Positive (Bortezomib 1 µM) and negative (0.1% DMSO) controls were included in all the screened plates to allow for monitoring the Z’ factor throughout the entire screening. Cells were treated with 3 µL of the previously made dilutions; thus, generating a 6-point 5-fold dose–response curve starting from 10 µM. Within a plate, each drug concentration was tested in duplicate in two independent experiments for each compound.
# (§5) Treated cells were then placed inside the CO2 incubator for 72 h at 37 °C. Cell viability was assessed by resazurin assay, in which 3 µL of resazurin per well were added using the previously described automated platform. Plates were placed in the incubator at 37 °C for 2 h, and then the fluorescence of each plate was read using a Spark 10 M multimode microplate reader (Tecan Group Ltd., Mannedorf, Switzerland) with 535 nm excitation wavelength and 600 nm emission wavelength.
row,SMILES,GI50 [nM]
1,[Br-].[Br-].c1cc2c(s1)c(N1CCCC1)cc[n+]2Cc1ccc(CCCCc2ccc(C[n+]3ccc(N4CCCC4)c4sccc43)cc2)cc1 [Ff-1],970 ± 20
2,[Br-].[Br-].c1cc2c(N3CCCC3)nc[n+](Cc3ccc(CCCCc4ccc(C[n+]5cnc(N6CCCC6)c6ccsc65)cc4)cc3)c2s1 [Ff-3],210 ± 20
3,[Br-].[Br-].c1cc2c(N3CCCC3)nc[n+](Cc3ccc(OCCOc4ccc(C[n+]5cnc(N6CCCC6)c6ccsc65)cc4)cc3)c2s1 [Ff-4],230 ± 30

# Tested on: HL-60
# Assay: Antiproliferative activity, resazurin assay, 72 h
# Assay type: cell-based, human
# Settings: not given
# Experimental: as §1, §2, §3, §4, §5
row,SMILES,GI50 [nM]
1,[Br-].[Br-].c1cc2c(s1)c(N1CCCC1)cc[n+]2Cc1ccc(CCCCc2ccc(C[n+]3ccc(N4CCCC4)c4sccc43)cc2)cc1 [Ff-1],790 ± 50
2,[Br-].[Br-].c1cc2c(N3CCCC3)nc[n+](Cc3ccc(CCCCc4ccc(C[n+]5cnc(N6CCCC6)c6ccsc65)cc4)cc3)c2s1 [Ff-3],210 ± 30
3,[Br-].[Br-].c1cc2c(N3CCCC3)nc[n+](Cc3ccc(OCCOc4ccc(C[n+]5cnc(N6CCCC6)c6ccsc65)cc4)cc3)c2s1 [Ff-4],790 ± 50

# Tested on: HT29
# Assay: Antiproliferative activity, resazurin assay, 72 h
# Assay type: cell-based, human
# Settings: not given
# Experimental: as §1, §2, §3, §4, §5
row,SMILES,GI50 [nM]
1,[Br-].[Br-].c1cc2c(s1)c(N1CCCC1)cc[n+]2Cc1ccc(CCCCc2ccc(C[n+]3ccc(N4CCCC4)c4sccc43)cc2)cc1 [Ff-1],3320 ± 30
2,[Br-].[Br-].c1cc2c(N3CCCC3)nc[n+](Cc3ccc(CCCCc4ccc(C[n+]5cnc(N6CCCC6)c6ccsc65)cc4)cc3)c2s1 [Ff-3],1330 ± 10
3,[Br-].[Br-].c1cc2c(N3CCCC3)nc[n+](Cc3ccc(OCCOc4ccc(C[n+]5cnc(N6CCCC6)c6ccsc65)cc4)cc3)c2s1 [Ff-4],> 10000

# Tested on: HeLa
# Assay: Antiproliferative activity, resazurin assay, 72 h
# Assay type: cell-based, human
# Settings: not given
# Experimental: as §1, §2, §3, §4, §5
row,SMILES,GI50 [nM]
1,[Br-].[Br-].c1cc2c(s1)c(N1CCCC1)cc[n+]2Cc1ccc(CCCCc2ccc(C[n+]3ccc(N4CCCC4)c4sccc43)cc2)cc1 [Ff-1],1900 ± 10
2,[Br-].[Br-].c1cc2c(N3CCCC3)nc[n+](Cc3ccc(CCCCc4ccc(C[n+]5cnc(N6CCCC6)c6ccsc65)cc4)cc3)c2s1 [Ff-3],630 ± 20
3,[Br-].[Br-].c1cc2c(N3CCCC3)nc[n+](Cc3ccc(OCCOc4ccc(C[n+]5cnc(N6CCCC6)c6ccsc65)cc4)cc3)c2s1 [Ff-4],> 10000

# Tested on: Jurkat
# Assay: Antiproliferative activity, resazurin assay, 72 h
# Assay type: cell-based, human
# Settings: not given
# Experimental: as §1, §2, §3, §4, §5
row,SMILES,GI50 [nM]
1,[Br-].[Br-].c1cc2c(s1)c(N1CCCC1)cc[n+]2Cc1ccc(CCCCc2ccc(C[n+]3ccc(N4CCCC4)c4sccc43)cc2)cc1 [Ff-1],4130 ± 400
2,[Br-].[Br-].c1cc2c(N3CCCC3)nc[n+](Cc3ccc(CCCCc4ccc(C[n+]5cnc(N6CCCC6)c6ccsc65)cc4)cc3)c2s1 [Ff-3],7540 ± 1500
3,[Br-].[Br-].c1cc2c(N3CCCC3)nc[n+](Cc3ccc(OCCOc4ccc(C[n+]5cnc(N6CCCC6)c6ccsc65)cc4)cc3)c2s1 [Ff-4],> 10000

# Tested on: MDA-MB-231
# Assay: Antiproliferative activity, resazurin assay, 72 h
# Assay type: cell-based, human
# Settings: not given
# Experimental: as §1, §2, §3, §4, §5
row,SMILES,GI50 [nM]
1,[Br-].[Br-].c1cc2c(s1)c(N1CCCC1)cc[n+]2Cc1ccc(CCCCc2ccc(C[n+]3ccc(N4CCCC4)c4sccc43)cc2)cc1 [Ff-1],1230 ± 10
2,[Br-].[Br-].c1cc2c(N3CCCC3)nc[n+](Cc3ccc(CCCCc4ccc(C[n+]5cnc(N6CCCC6)c6ccsc65)cc4)cc3)c2s1 [Ff-3],360 ± 30
3,[Br-].[Br-].c1cc2c(N3CCCC3)nc[n+](Cc3ccc(OCCOc4ccc(C[n+]5cnc(N6CCCC6)c6ccsc65)cc4)cc3)c2s1 [Ff-4],720 ± 30

# Tested on: RS 4;11
# Assay: Antiproliferative activity, resazurin assay, 72 h
# Assay type: cell-based, human
# Settings: not given
# Experimental: as §1, §2, §3, §4, §5
row,SMILES,GI50 [nM]
1,[Br-].[Br-].c1cc2c(s1)c(N1CCCC1)cc[n+]2Cc1ccc(CCCCc2ccc(C[n+]3ccc(N4CCCC4)c4sccc43)cc2)cc1 [Ff-1],7900 ± 1300
2,[Br-].[Br-].c1cc2c(N3CCCC3)nc[n+](Cc3ccc(CCCCc4ccc(C[n+]5cnc(N6CCCC6)c6ccsc65)cc4)cc3)c2s1 [Ff-3],2050 ± 100
3,[Br-].[Br-].c1cc2c(N3CCCC3)nc[n+](Cc3ccc(OCCOc4ccc(C[n+]5cnc(N6CCCC6)c6ccsc65)cc4)cc3)c2s1 [Ff-4],> 10000

# Tested on: SEM cells
# Assay: Antiproliferative activity, resazurin assay, 72 h
# Assay type: cell-based, human
# Settings: not given
# Experimental: as §1, §2, §3, §4, §5
row,SMILES,GI50 [nM]
1,[Br-].[Br-].c1cc2c(s1)c(N1CCCC1)cc[n+]2Cc1ccc(CCCCc2ccc(C[n+]3ccc(N4CCCC4)c4sccc43)cc2)cc1 [Ff-1],3070 ± 300
2,[Br-].[Br-].c1cc2c(N3CCCC3)nc[n+](Cc3ccc(CCCCc4ccc(C[n+]5cnc(N6CCCC6)c6ccsc65)cc4)cc3)c2s1 [Ff-3],3700 ± 400
3,[Br-].[Br-].c1cc2c(N3CCCC3)nc[n+](Cc3ccc(OCCOc4ccc(C[n+]5cnc(N6CCCC6)c6ccsc65)cc4)cc3)c2s1 [Ff-4],> 10000

# Source: paper PMC9032693, “Biological Evaluation of New Thienopyridinium and Thienopyrimidinium Derivatives as Human Choline Kinase Inhibitors” (Pharmaceutics, 2022)
